# Results: patent US20190256994A1, “Electrochemical Deposition of Elements in Aqueous Media” (LumiShield Technologies Incorporated, priority 2016, published 2019)
# Type: physicochemical
# Conditions: 1 M aluminum aqueous solution
row,Compound,pH
1,"[Cl][Al]([Cl])[Cl] [AlCl3, Aluminum chloride]",2.04

# Conditions: acid of the ligand; cited from earlier work
row,Compound,pKa in water
1,Trifluoroacetate [Trifluoroacetate (TFA)],0.52
2,p-Toluenesulfonate [p-Toluenesulfonate (p-TSA)],-2.14
3,"O=S(=O)(NS(=O)(=O)C(F)(F)F)C(F)(F)F [bis(trifluoromethane) sulfonamide(Tf2N), bis(trifluoromethane) sulfonamide]",Too negative to measure
4,Methanesulfonate [Methanesulfonate (MSO)],-1.61
5,"O=S(=O)(O)C(F)(F)F [Triflate (TfO), Triflate]",-3.43
